Patent publication US11590133B2, “Methods and compositions for treatment of BRAF mutant cancers” (MEMORIAL SLOAN KETTERING CANCER CENTER, priority 2016, dated 2023)

Experiments:
[1] = tested on: BRAFV600E-mutant lung cancer patient-derived xenografts (PDX); assay: ERK inhibitor monotherapy of lung cancer PDX, tumor growth; format: in vivo, mice; settings: SCH984 75 mpk; FIG. 1B
From the text: These were established as described^38,39, in accordance with the Memorial Sloan Kettering Cancer Center Institutional Review Board. Informed consent was obtained in all cases. All animal studies were done in accordance with protocols approved by the MSKCC Animal Care and Use Committee. Melanoma models were generated previously40. Patient derived tissue (biopsy or surgical resection) or pleural fluid was used to establish the lung cancer models in Table I. For biopsy or resection specimens, the tumor sample was minced under aseptic conditions, vigorously washed in 1×PBS, passed through a 60-μm filter, centrifuged, and then re-suspended in 500 μL of Matrigel (BD Biosciences) at 4° C. For pleural effusions, the fluid was centrifuged in order to isolate the cellular fraction and washed several times in cold PBS. Cells were then injected subcutaneously in the flanks of NSG mice and monitored for tumor growth. […]
Nu/nu athymic or NSG mice were obtained from the Harlan Laboratories and maintained in compliance with IACUC guidelines. […] Doubling times were calculated by fitting tumor volumes into exponential growth curves and determining their rate constants in Prism. […] Statistically significant differences in rate constants were determined by using the extra-sum-of-squares F test (with p<0.05) embedded in Prism. […]

ERK = settings: cited from earlier work

## CS[C@@]1(C(=O)Nc2ccc3[nH]nc(-c4ccc(OC(C)C)nc4)c3c2)CCN(CC(=O)N2CC=C(c3ccc(-c4ncn(C)n4)cc3)CC2)C1 [SCH984]
[1]
  PDX tested in which growth was inhibited: 3/4
  duration of response: several weeks
ERK; ATP-competitive inhibitor
  effect on ERK kinase activity and ERK phosphorylation by MEK: inhibits the kinase activity of ERK and prevents its phosphorylation by MEK
ERK
  preference for phosphorylation state of ERK: preferentially targets unphosphorylated ERK
